Laboratory results from EP0068806A2, “Basic acyl amides of (5-amino-1,3-dialkylpyrazol-4-yl)(aryl)methanones, processes for their production, and pharmaceutical compositions containing such compounds” (WARNER-LAMBERT COMPANY, priority 1981, dated 1983).

System: Long-Evans rats or squirrel-monkeys
Test: Conditioned lever-press avoidance of electric footshock (antipsychotic activity)
Format: in vivo
Details: avoidance test for antipsychotic activity; Long-Evans rats or squirrel-monkeys (species per value not stated)
Procedure: Representative compounds of the invention (identified in the examples) were also tested for antipsychotic activity according to the following protocol. The noted compounds had the indicated ED50 values (mg/kg) and are considered active as antipsychotic agents in the test procedure.
Mature male Long-Evans rats or squirrel-monkeys are conditioned to push a lever in order to avoid a painful electric footshock. If the animal fails to push the. lever, he receives a shock every 10 seconds until the lever is pushed. Shocks can be terminated by pushing the lever. Thereafter, as long as the lever is pushed at least once every 20 seconds, there will be no shock.
Each animal acts as its own control; one weekly session is used to establish baseline behavior and another session later in the week is used as a drug session. Once patterns of avoidance are established, the effects of standard and unknown compounds are studied.
All events are electronically programmed and the response to these events counted or used as feed-back to the program.

Cc1nn(C)c(NC(=O)CN2CCCC2)c1C(=O)c1ccccc1F [Compound 1, N-[4-(2-Fluorobenzoyl)-1,3-dimethyl-1H-pyrazol-5-yl]-1-pyrrolidineacetamide]
ED50: 48.2 mg/kg

Cc1nn(C)c(NC(=O)CN2CCCCC2)c1C(=O)c1ccccc1F [Compound 5, N-[4-(2-Fluorobenzoyl)-1,3-dimethyl-1H-pyrazol-5-yl]-1-piperidine-acetamide]
ED50: 48 mg/kg

CCN(CC)CC(=O)Nc1c(C(=O)c2ccccc2F)c(C)nn1C [Compound 6, 2-(Diethylamino)-N-[4-(2-fluorobenzoyl)-1,3-dimethyl-1H-pyrazol-5-yl]acetamide]
ED50: 25.6 mg/kg

Cc1nn(C)c(NC(=O)CNCC2(C)OCCO2)c1C(=O)c1ccccc1F [Compound 8, N-[4-(2-Fluorobenzoyl)-1,3-dimethyl-1H-pyrazol-5-yl]-3-[[(2-methyl-1,3-dioxolan-2-yl)methyl]amino]acetamide]
ED50: 36.4 mg/kg

Cc1nn(C)c(NC(=O)CN2CC3CCC(CC3)C2)c1C(=O)c1ccccc1F [Compound 9, N-[4-(2-Fluorobenzoyl)-1,3-dinethyl-1H-pyrazol-5-yl]-3-azabicyclo-[3,2,2]nonane-3-acetamide]
ED50: 36.3 mg/kg

Cc1nn(C)c(NC(=O)CNCCCN2CCCCC2C)c1C(=O)c1ccccc1F (stereo not drawn) [Compound 20, N-[4-(2-Fluorobenzoyl)-1,3-dimethyl-1H-pyrazol-5-yl]-2-[[3-(2-methyl-1-piperidinyl)propyl]amino]acetamide]
ED50: 21.4 mg/kg

Cc1nn(C)c(NC(=O)CNCCCN2CCOCC2)c1C(=O)c1ccccc1F [Compound 35]
ED50: 51.6 mg/kg

CC1=C(NCCN(C)CC(=O)Nc2c(C(=O)c3ccccc3F)c(C)nn2C)CCC1=O [Compound 38, N-[4-(2-Fluorobenzoyl}-1,3-dimethyl-1H-pyrazol-5-yl]-2-[mothyl[2-[(2-methyl-3-oxo-1-cyclopenten-1-yl}amino]ethyl]amino]acetamide]
ED50: 21.7 mg/kg

Cc1nn(C)c(NC(=O)CSCCCN2CCCCC2C)c1C(=O)c1ccccc1F (stereo not drawn) [Compound 43, N-[4-(2-Fluorobenzoyl)-1,3-dimethyl-1H-pyrazol-5-yl]-2-[[3-(2-methyl-1-piperidinyl)propyl]thio]acetamide]
ED50: 26.5 mg/kg
